The supplement of paper PMC10307832

What was measured:
Assay in all cases: relative viability (nuclei count vs DMSO), 5 days (fraction); higher = more cells survive
201T = test system: 201T
Summary of the method: (§1)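 A single step with final 0.05% Triton X-100, 1% formaldehyde and 1 ug/ml Hoechst fixed the cells and stained nuclei 5 days after treatment. Lung cancer cell lines in 1536-well plates had been treated by pin tool the day after seeding with one drug alone or a fixed anchor-drug dose plus five library-drug doses (not always all listed) in √10 steps, and nuclei were counted on 4× images. Relative viability is the ratio of nuclei in treated wells to nuclei in vehicle wells, taken as the median of duplicate plates.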

BEN = test system: BEN
Summary of the method: as §1

COR-L 105 = test system: COR-L 105
Summary of the method: as §1

EKVX = test system: EKVX
Summary of the method: as §1

EPLC-272H = test system: EPLC-272H
Summary of the method: as §1

H3255 = test system: H3255
Summary of the method: as §1

HCC-827 = test system: HCC-827
Summary of the method: as §1

LCLC-97TM1 = test system: LCLC-97TM1
Summary of the method: as §1

LOU-NH91 = test system: LOU-NH91
Summary of the method: as §1

LU99A = test system: LU99A
Summary of the method: as §1

NCI-H1437 = test system: NCI-H1437
Summary of the method: as §1

NCI-H1666 = test system: NCI-H1666
Summary of the method: as §1

NCI-H1975 = test system: NCI-H1975
Summary of the method: as §1

NCI-H2085 = test system: NCI-H2085
Summary of the method: as §1

NCI-H2087 = test system: NCI-H2087
Summary of the method: as §1

NCI-H2170 = test system: NCI-H2170
Summary of the method: as §1

NCI-H2342 = test system: NCI-H2342
Summary of the method: as §1

NCI-H647 = test system: NCI-H647
Summary of the method: as §1

NCI-H650 = test system: NCI-H650
Summary of the method: as §1

PC-3 [JPC-3] = test system: PC-3 [JPC-3]
Summary of the method: as §1

SW 1573 = test system: SW 1573
Summary of the method: as §1

Structure (SMILES): O=c1cc(-c2cccc3c2Sc2ccccc2S3)oc(N2CCOCC2)c1 + COc1cc2c(Oc3ccc(NC(=O)C4(C(=O)Nc5ccc(F)cc5)CC4)cc3F)ccnc2cc1OCCCN1CCOCC1 [Foretinib] (partner 0.25 µM)
- relative viability (201T; first compound 0.08 µM): 1.14
- relative viability (201T; first compound 0.253 µM): 1.08
- relative viability (201T; first compound 0.8 µM): 0.787
- relative viability (201T; first compound 2.53 µM): 1.06
- relative viability (201T; first compound 8 µM): 1.01
- relative viability (BEN; first compound 0.08 µM): 0.485
- relative viability (BEN; first compound 0.253 µM): 0.662
- relative viability (BEN; first compound 0.8 µM): 0.674
- relative viability (BEN; first compound 2.53 µM): 0.578
- relative viability (BEN; first compound 8 µM): 0.97
- relative viability (COR-L 105; first compound 0.08 µM): 1.31
- relative viability (COR-L 105; first compound 0.253 µM): 0.854
- relative viability (COR-L 105; first compound 0.8 µM): 0.8
- relative viability (COR-L 105; first compound 2.53 µM): 1.08
- relative viability (COR-L 105; first compound 8 µM): 1.38
- relative viability (EKVX; first compound 0.08 µM): 0.785
- relative viability (EKVX; first compound 0.253 µM): 0.892
- relative viability (EKVX; first compound 0.8 µM): 0.751
- relative viability (EKVX; first compound 2.53 µM): 0.734
- relative viability (EKVX; first compound 8 µM): 1.33
- relative viability (EPLC-272H; first compound 0.08 µM): 0.6
- relative viability (EPLC-272H; first compound 0.253 µM): 0.624
- relative viability (EPLC-272H; first compound 0.8 µM): 0.897
- relative viability (EPLC-272H; first compound 2.53 µM): 0.675
- relative viability (EPLC-272H; first compound 8 µM): 0.572
- relative viability (H3255; first compound 0.08 µM): 0.758
- relative viability (H3255; first compound 0.253 µM): 0.821
- relative viability (H3255; first compound 0.8 µM): 0.87
- relative viability (H3255; first compound 2.53 µM): 0.738
- relative viability (H3255; first compound 8 µM): 0.925
- relative viability (HCC-827; first compound 0.08 µM): 0.94
- relative viability (HCC-827; first compound 0.253 µM): 1.12
- relative viability (HCC-827; first compound 0.8 µM): 1.07
- relative viability (HCC-827; first compound 2.53 µM): 0.863
- relative viability (HCC-827; first compound 8 µM): 1.02
- relative viability (LCLC-97TM1; first compound 0.08 µM): 0.961
- relative viability (LCLC-97TM1; first compound 0.253 µM): 1.02
- relative viability (LCLC-97TM1; first compound 0.8 µM): 0.977
- relative viability (LCLC-97TM1; first compound 2.53 µM): 0.887
- relative viability (LCLC-97TM1; first compound 8 µM): 0.909
- relative viability (LOU-NH91; first compound 0.08 µM): 0.976
- relative viability (LOU-NH91; first compound 0.253 µM): 0.906
- relative viability (LOU-NH91; first compound 0.8 µM): 0.833
- relative viability (LOU-NH91; first compound 2.53 µM): 0.838
- relative viability (LOU-NH91; first compound 8 µM): 0.967
- relative viability (LU99A; first compound 0.08 µM): 0.825
- relative viability (LU99A; first compound 0.253 µM): 0.841
- relative viability (LU99A; first compound 0.8 µM): 1.04
- relative viability (LU99A; first compound 2.53 µM): 0.829
- relative viability (LU99A; first compound 8 µM): 1.13
- relative viability (NCI-H1437; first compound 0.08 µM): 1.27
- relative viability (NCI-H1437; first compound 0.253 µM): 1.41
- relative viability (NCI-H1437; first compound 0.8 µM): 1.32
- relative viability (NCI-H1437; first compound 2.53 µM): 1.23
- relative viability (NCI-H1437; first compound 8 µM): 1.33
- relative viability (NCI-H1666; first compound 0.08 µM): 1
- relative viability (NCI-H1666; first compound 0.253 µM): 1.07
- relative viability (NCI-H1666; first compound 0.8 µM): 1.13
- relative viability (NCI-H1666; first compound 2.53 µM): 0.971
- relative viability (NCI-H1666; first compound 8 µM): 0.908
- relative viability (NCI-H1975; first compound 0.08 µM): 0.966
- relative viability (NCI-H1975; first compound 0.253 µM): 0.924
- relative viability (NCI-H1975; first compound 0.8 µM): 0.931
- relative viability (NCI-H1975; first compound 2.53 µM): 0.946
- relative viability (NCI-H1975; first compound 8 µM): 1.02
- relative viability (NCI-H2085; first compound 0.08 µM): 0.907
- relative viability (NCI-H2085; first compound 0.253 µM): 1.21
- relative viability (NCI-H2085; first compound 0.8 µM): 0.975
- relative viability (NCI-H2085; first compound 2.53 µM): 0.771
- relative viability (NCI-H2085; first compound 8 µM): 0.845
- relative viability (NCI-H2087; first compound 0.08 µM): 0.976
- relative viability (NCI-H2087; first compound 0.253 µM): 1.13
- relative viability (NCI-H2087; first compound 0.8 µM): 1.3
- relative viability (NCI-H2087; first compound 2.53 µM): 1.23
- relative viability (NCI-H2087; first compound 8 µM): 1.19
- relative viability (NCI-H2170; first compound 0.08 µM): 1.03
- relative viability (NCI-H2170; first compound 0.253 µM): 1.05
- relative viability (NCI-H2170; first compound 0.8 µM): 1.08
- relative viability (NCI-H2170; first compound 2.53 µM): 0.999
- relative viability (NCI-H2170; first compound 8 µM): 0.983
- relative viability (NCI-H2342; first compound 0.08 µM): 0.996
- relative viability (NCI-H2342; first compound 0.253 µM): 1.04
- relative viability (NCI-H2342; first compound 0.8 µM): 0.916
- relative viability (NCI-H2342; first compound 2.53 µM): 0.917
- relative viability (NCI-H2342; first compound 8 µM): 1.11
- relative viability (NCI-H647; first compound 0.08 µM): 1.15
- relative viability (NCI-H647; first compound 0.253 µM): 1.35
- relative viability (NCI-H647; first compound 0.8 µM): 1.25
- relative viability (NCI-H647; first compound 2.53 µM): 1.21
- relative viability (NCI-H647; first compound 8 µM): 1.29
- relative viability (NCI-H650; first compound 0.08 µM): 0.998
- relative viability (NCI-H650; first compound 0.253 µM): 1.09
- relative viability (NCI-H650; first compound 0.8 µM): 1.04
- relative viability (NCI-H650; first compound 8 µM): 1.01
- relative viability (PC-3 [JPC-3]; first compound 0.08 µM): 1.06
- relative viability (PC-3 [JPC-3]; first compound 0.253 µM): 1.08
- relative viability (PC-3 [JPC-3]; first compound 0.8 µM): 1.16
- relative viability (PC-3 [JPC-3]; first compound 2.53 µM): 1.01
- relative viability (PC-3 [JPC-3]; first compound 8 µM): 1.2
- relative viability (SW 1573; first compound 0.08 µM): 0.8
- relative viability (SW 1573; first compound 0.253 µM): 0.916
- relative viability (SW 1573; first compound 0.8 µM): 0.783
- relative viability (SW 1573; first compound 2.53 µM): 0.989
- relative viability (SW 1573; first compound 8 µM): 1
